Laboratory results: patent US8207143B2, “Methods of treating cancer and other conditions or disease states using LFMAU and LDT” (Yale University, priority 2005, dated 2012)

What was measured:
colon 38 mouse tumor = test: Experiment 7: LDT and LFMAU alone and with 5-Fluorouracil/leucovorin on colon 38 in immuno-competent mice; type: in vivo; conditions: LDT 100 mg/kg
Protocol: This tumor is passed from a solid tumor growing in mice. Several grams (assuming a gram per ml) are pressed through a sterile screen and suspended in a tissue culture media without phenol red or fetal calf serum (a balanced salt solution) at 2 ml/gram of tumor. Then 0.1 ml of this tumor suspension is implanted into the flank of the mouse. Ten days to two weeks after implantation (when the tumors could be measured with a caliper), unless otherwise indicated, the drug therapy was initiated.
In general, drugs are delivered at a rate of 0.1 ml per 10 grams of body weight. Every day the mice are weighed to deter the amount to be injected and as a index of toxicity.
The Tumor Volume is calculated from the measurements by the formula: length (mm)×width (mm)×width (mm)×II/6 (as a % of Day 1).
This experiment was designed to determine the effect of LDT and LFMAU alone and in combination with 5-Fluorouracil with leucovorin rescue on the growth of mouse tumor (colon 38) in immuno-competent mice. The drugs were administered to the mice according to the following schedule:
5FU/LV—150 mg/kg each i.p. once on day one
LDT—100 mg/kg p.o. b.i.d. for 5 days
LFMAU—50 mg/kg p.o. bid for 5 days
Combination groups received both treatments as per above schedules.

HepG2 = test: Experiment 9: LDT enhancement of oxaliplatin on HepG2 in NCR Nu/Nu male mice; type: in vivo, human
Protocol: This is a human hepatocarcinoma that is grown in tissue culture as a monolayer in MEM with 10% FBS. Several flasks of cells are grown, then harvested with pancreatin and resuspended in a balanced salt solution at 10^8 per ml the 0.1 ml of this suspension is implanted into the flank of a NCR nude mouse (T cell deficient to grow human tissues). Then approximately 10 days later, when the tumor was measurable, the drug treatment started. In general, drugs are delivered at a rate of 0.1 ml per 10 grams of body weight. Every day the mice are weighed to deter the amount to be injected and as a index of toxicity. The Tumor Volume is calculated from the measurements by the formula: length (mm)×width (mm)×width (mm)×II/6 (as a % of Day 1). Experiment 9 tested the effects of LDT (15 mg/kg, same schedule as above) on the enhancement of anti-cancer drug effect (oxaliplatin 10 mg/kg i.p., once on day 1) on HepG2in immunodeficient NCR Nu/Nu male mice.

colon 38 = test: Experiment 8: LDT and LFMAU enhancement of oxaliplatin on colon 38 growth in C57BL6 female mice; type: in vivo, mouse
Protocol: This tumor is passed from a solid tumor growing in mice. Several grams (assuming a gram per ml) are pressed through a sterile screen and suspended in a tissue culture media without phenol red or fetal calf serum (a balanced salt solution) at 2 ml/gram of tumor. Then 0.1 ml of this tumor suspension is implanted into the flank of the mouse. Ten days to two weeks after implantation (when the tumors could be measured with a caliper), unless otherwise indicated, the drug therapy was initiated. In general, drugs are delivered at a rate of 0.1 ml per 10 grams of body weight. Every day the mice are weighed to deter the amount to be injected and as a index of toxicity. The Tumor Volume is calculated from the measurements by the formula: length (mm)×width (mm)×width (mm)×II/6 (as a % of Day 1). Experiment 8 tested the effects of LDT (L-dT) and LFMAU (15 mg/kg of each, same schedule as above) on the enhancement of anti-cancer drug effect (oxaliplatin 10 mg/kg i.p., once on day 1) on colon 38 growth in C57BL6 female mice.

B16 melanoma = test: Experiment 6: B16 melanoma injected subcutaneously into C57 BL6 mice; type: in vivo, mouse; conditions: B16 melanoma s.c. in C57 BL6 mice; LFMAU 50 mg/kg B.I.D., 5 days pretreatment then ten days; Controls 831±474.5
Protocol: These experiments includes B16 melanoma which was injected subcutaneously into C57 BL6 mice which were pretreated for 5 days with LFMAU (B.I.D.) and then subsequently for ten days with LFMAU (BID.) at 50 mg/kg. with no other anti-cancer compound. This experiment yielded tumor size S.D. for the Controls of 831±474.5 and for the LFMAU treated mice of 160±150.3.

[1] = immunocompetent mice, LFMAU 50 mg/kg p.o. b.i.d. for 5 days

SMILES: Cc1cn([C@@H]2C[C@@H](O)[C@H](CO)O2)c(=O)[nH]c1=O [LDT, β-L-2′-deoxyribofuranosylthymidine]
- duration of the effect after therapy (FIG. 7) (colon 38 mouse tumor; [1]): lasted well past the 5 day therapy
- effect on growth of colon 38 mouse tumor, alone (FIG. 7) (colon 38 mouse tumor; [1]): slows down the growth
- effect on the anti-cancer activity of 5-FU/LV (FIG. 7) (colon 38 mouse tumor; with 5FU/LV 150 mg/kg each i.p. once on day one, LFMAU 50 mg/kg p.o. b.i.d. 5 days): significant (additive or synergistic)
- effect on HepG2 tumor, alone or in combination (FIG. 9) (HepG2; LDT 15 mg/kg): effective alone or in combination with oxaliplatin
- duration of the effect after treatment (FIG. 9) (HepG2; LDT 15 mg/kg with oxaliplatin): lasts after the nucleoside treatment is stopped
- enhancement of anti-tumor effect of Oxaliplatin on HepG2 (FIG. 9) (HepG2; LDT 15 mg/kg, oxaliplatin 10 mg/kg i.p. once on day 1): clearly enhanced the anti-tumor effect of Oxaliplatin
- enhancement of anti-tumor effect of Oxaliplatin on colon 38 (FIG. 8) (colon 38; 15 mg/kg of each nucleoside, oxaliplatin 10 mg/kg i.p. once on day 1): clearly enhanced the anti-tumor effect of Oxaliplatin
- duration of the effect after treatment (FIG. 8) (colon 38; 15 mg/kg with oxaliplatin 10 mg/kg i.p.): lasts well after the nucleoside treatment is stopped

SMILES: Cc1cn([C@H]2O[C@@H](CO)[C@H](O)[C@H]2F)c(=O)[nH]c1=O [LFMAU, 2′-fluoro-5-methyl-β-L-arabinofuranosyluridine]
- tumor size S.D. (B16 melanoma): 160±150.3
